Measured values reported in ChEMBL document CHEMBL3860026, “Depsidones from Lichens as Natural Product Inhibitors of M-Phase Phosphoprotein 1, a Human Kinesin Required for Cytokinesis” (J Nat Prod, 2016).
≈ marks a conversion by molar mass, not a printed value.

What was measured:
[1] = target: Kinesin-like protein KIF20B (Homo sapiens, UniProt Q96Q89); test: Inhibition of microtubule-stimulated ATPase activity of N-terminal His6-tagged/SUMO-fused human MPP1 motor domain (57 to 491 residues) expressed in Escherichia coli BL21 CodonPlus by pyruvate kinase/lactate dehydrogenase-linked assay
[2] = Cytotoxicity against human HCT116 cells assessed as growth inhibition after 72 hrs by Alamar Blue assay; assay type: functional, cell-based; conditions: HCT-116, 72 h
[3] = target: T1, Kinesin-like protein KIF9 (Homo sapiens) (UniProt Q9HAQ2); test: Inhibition of basal ATPase activity of human Kif9 at 200 uM by pyruvate kinase/lactate dehydrogenase-linked assay
T1 sequence (whole entry): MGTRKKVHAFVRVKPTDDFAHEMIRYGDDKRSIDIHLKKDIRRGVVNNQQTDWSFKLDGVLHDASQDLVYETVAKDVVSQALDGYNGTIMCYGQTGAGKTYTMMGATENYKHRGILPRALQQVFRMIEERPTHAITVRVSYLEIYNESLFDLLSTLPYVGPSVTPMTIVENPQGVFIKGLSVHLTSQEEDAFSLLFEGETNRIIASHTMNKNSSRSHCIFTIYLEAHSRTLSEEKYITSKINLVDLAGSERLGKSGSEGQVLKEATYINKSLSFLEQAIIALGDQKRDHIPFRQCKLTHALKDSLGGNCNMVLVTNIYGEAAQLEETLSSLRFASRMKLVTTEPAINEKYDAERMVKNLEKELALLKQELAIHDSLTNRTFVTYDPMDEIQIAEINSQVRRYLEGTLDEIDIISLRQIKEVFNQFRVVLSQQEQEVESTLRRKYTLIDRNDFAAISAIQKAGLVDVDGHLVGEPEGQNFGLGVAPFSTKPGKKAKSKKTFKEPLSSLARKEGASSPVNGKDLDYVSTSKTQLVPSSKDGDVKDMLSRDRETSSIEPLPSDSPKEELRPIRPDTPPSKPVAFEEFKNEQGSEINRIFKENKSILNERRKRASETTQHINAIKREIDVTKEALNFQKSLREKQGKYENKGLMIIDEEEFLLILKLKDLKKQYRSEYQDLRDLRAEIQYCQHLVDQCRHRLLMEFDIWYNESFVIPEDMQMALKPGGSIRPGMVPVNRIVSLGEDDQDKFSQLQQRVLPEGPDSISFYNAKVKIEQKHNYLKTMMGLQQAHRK

[4] = target: T2, Kinesin-like protein KIF23 (Homo sapiens) (UniProt Q02241); test: Inhibition of microtubule-stimulated ATPase activity of human MKLP-1 at 200 uM by pyruvate kinase/lactate dehydrogenase-linked assay
T2 sequence (whole entry): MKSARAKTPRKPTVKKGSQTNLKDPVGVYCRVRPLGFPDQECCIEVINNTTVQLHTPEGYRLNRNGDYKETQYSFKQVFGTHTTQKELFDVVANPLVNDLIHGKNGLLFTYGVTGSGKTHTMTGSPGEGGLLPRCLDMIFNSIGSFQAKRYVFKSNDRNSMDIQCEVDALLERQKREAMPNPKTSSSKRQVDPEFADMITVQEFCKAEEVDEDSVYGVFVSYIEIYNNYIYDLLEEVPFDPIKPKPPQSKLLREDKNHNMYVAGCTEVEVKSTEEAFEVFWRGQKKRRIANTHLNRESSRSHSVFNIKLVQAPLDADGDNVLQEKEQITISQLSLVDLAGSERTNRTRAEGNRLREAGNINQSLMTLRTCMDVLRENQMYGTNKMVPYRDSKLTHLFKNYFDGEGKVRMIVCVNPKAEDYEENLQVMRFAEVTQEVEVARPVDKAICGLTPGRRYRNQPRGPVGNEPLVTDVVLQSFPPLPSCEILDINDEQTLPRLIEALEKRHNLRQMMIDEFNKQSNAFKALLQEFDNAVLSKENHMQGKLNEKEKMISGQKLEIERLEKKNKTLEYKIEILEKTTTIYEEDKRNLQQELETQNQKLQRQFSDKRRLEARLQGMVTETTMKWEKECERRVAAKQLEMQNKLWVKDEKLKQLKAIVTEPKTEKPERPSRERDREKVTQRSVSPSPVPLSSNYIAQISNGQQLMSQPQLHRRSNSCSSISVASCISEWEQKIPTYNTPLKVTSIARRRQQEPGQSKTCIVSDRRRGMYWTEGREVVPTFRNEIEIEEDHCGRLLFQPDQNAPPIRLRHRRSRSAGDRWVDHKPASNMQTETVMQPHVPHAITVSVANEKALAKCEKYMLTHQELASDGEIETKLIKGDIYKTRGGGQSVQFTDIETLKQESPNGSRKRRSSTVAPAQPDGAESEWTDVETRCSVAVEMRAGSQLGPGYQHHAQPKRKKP

[5] = target: Centromere-associated protein E (Homo sapiens, UniProt Q02224); test: Inhibition of microtubule-stimulated ATPase activity of human CENP-E by pyruvate kinase/lactate dehydrogenase-linked assay
[6] = Solubility of the compound in phosphate buffered saline at pH 6 after 2 hrs by turbidimetric method; assay type: physicochemical
[7] = Solubility of the compound in phosphate buffered saline at pH 7.4 after 2 hrs by turbidimetric method; assay type: physicochemical
[8] = Apparent passive permeability of the compound at 10 uM after 5 hrs by PAMPA; assay type: ADME; conditions: pampa, 5 h, 10 µM
[9] = Intrinsic clearance in mouse liver microsomes assessed per mg of protein at 3 uM after 5 to 60 mins by LC-MS/MS method; assay type: ADME; conditions: read-out: CLH
[10] = Half life in human liver microsomes at 3 uM by LC-MS/MS method; assay type: ADME
[11] = Half life in mouse liver microsomes at 3 uM by LC-MS/MS method; assay type: ADME

Kinesin-like protein KIF20B, sequence (Q96Q89 whole entry, the tested form may be a part): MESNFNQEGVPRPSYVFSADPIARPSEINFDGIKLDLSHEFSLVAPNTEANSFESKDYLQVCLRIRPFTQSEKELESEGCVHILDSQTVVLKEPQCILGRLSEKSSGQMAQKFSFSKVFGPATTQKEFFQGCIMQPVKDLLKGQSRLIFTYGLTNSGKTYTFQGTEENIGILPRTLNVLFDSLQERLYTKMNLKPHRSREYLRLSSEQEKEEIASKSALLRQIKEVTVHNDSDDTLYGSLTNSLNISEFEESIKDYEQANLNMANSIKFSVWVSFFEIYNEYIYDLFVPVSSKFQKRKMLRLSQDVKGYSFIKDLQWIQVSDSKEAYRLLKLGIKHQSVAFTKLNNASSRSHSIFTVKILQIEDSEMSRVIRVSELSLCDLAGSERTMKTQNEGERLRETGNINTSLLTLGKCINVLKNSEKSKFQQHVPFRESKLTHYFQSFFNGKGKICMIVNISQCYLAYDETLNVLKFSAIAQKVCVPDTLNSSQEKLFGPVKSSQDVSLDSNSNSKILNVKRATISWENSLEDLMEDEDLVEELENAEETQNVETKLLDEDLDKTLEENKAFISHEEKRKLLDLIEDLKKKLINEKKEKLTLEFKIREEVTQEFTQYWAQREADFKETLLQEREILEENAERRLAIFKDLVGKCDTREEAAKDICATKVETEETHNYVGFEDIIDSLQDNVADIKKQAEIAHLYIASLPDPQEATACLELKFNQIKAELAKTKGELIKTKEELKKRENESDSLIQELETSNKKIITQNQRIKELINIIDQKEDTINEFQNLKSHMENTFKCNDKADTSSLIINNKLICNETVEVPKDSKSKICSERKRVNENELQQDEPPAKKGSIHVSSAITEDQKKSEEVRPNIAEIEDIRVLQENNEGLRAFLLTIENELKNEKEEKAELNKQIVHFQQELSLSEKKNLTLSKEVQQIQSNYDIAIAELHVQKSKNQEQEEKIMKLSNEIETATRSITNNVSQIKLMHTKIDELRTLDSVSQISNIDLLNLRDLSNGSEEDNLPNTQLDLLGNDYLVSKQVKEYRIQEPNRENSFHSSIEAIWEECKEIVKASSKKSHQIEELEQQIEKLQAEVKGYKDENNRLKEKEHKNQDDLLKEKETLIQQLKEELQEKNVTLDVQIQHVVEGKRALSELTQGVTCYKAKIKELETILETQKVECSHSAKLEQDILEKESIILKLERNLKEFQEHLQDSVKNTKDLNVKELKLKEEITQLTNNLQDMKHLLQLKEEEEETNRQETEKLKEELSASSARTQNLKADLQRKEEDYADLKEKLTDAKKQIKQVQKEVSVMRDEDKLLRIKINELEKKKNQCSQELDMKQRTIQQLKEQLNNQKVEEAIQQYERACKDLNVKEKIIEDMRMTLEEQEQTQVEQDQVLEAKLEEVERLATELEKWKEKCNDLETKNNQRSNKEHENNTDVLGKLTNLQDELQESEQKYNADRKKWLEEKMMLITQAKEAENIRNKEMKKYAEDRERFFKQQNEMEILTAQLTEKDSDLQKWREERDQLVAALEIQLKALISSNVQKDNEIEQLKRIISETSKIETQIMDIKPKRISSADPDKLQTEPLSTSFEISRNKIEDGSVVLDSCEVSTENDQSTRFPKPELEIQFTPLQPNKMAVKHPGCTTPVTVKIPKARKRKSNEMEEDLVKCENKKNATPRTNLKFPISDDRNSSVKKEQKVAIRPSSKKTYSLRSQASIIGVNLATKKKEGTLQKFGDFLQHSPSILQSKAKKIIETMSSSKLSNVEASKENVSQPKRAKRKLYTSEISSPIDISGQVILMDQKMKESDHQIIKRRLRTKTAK
Centromere-associated protein E, sequence (Q02224 whole entry): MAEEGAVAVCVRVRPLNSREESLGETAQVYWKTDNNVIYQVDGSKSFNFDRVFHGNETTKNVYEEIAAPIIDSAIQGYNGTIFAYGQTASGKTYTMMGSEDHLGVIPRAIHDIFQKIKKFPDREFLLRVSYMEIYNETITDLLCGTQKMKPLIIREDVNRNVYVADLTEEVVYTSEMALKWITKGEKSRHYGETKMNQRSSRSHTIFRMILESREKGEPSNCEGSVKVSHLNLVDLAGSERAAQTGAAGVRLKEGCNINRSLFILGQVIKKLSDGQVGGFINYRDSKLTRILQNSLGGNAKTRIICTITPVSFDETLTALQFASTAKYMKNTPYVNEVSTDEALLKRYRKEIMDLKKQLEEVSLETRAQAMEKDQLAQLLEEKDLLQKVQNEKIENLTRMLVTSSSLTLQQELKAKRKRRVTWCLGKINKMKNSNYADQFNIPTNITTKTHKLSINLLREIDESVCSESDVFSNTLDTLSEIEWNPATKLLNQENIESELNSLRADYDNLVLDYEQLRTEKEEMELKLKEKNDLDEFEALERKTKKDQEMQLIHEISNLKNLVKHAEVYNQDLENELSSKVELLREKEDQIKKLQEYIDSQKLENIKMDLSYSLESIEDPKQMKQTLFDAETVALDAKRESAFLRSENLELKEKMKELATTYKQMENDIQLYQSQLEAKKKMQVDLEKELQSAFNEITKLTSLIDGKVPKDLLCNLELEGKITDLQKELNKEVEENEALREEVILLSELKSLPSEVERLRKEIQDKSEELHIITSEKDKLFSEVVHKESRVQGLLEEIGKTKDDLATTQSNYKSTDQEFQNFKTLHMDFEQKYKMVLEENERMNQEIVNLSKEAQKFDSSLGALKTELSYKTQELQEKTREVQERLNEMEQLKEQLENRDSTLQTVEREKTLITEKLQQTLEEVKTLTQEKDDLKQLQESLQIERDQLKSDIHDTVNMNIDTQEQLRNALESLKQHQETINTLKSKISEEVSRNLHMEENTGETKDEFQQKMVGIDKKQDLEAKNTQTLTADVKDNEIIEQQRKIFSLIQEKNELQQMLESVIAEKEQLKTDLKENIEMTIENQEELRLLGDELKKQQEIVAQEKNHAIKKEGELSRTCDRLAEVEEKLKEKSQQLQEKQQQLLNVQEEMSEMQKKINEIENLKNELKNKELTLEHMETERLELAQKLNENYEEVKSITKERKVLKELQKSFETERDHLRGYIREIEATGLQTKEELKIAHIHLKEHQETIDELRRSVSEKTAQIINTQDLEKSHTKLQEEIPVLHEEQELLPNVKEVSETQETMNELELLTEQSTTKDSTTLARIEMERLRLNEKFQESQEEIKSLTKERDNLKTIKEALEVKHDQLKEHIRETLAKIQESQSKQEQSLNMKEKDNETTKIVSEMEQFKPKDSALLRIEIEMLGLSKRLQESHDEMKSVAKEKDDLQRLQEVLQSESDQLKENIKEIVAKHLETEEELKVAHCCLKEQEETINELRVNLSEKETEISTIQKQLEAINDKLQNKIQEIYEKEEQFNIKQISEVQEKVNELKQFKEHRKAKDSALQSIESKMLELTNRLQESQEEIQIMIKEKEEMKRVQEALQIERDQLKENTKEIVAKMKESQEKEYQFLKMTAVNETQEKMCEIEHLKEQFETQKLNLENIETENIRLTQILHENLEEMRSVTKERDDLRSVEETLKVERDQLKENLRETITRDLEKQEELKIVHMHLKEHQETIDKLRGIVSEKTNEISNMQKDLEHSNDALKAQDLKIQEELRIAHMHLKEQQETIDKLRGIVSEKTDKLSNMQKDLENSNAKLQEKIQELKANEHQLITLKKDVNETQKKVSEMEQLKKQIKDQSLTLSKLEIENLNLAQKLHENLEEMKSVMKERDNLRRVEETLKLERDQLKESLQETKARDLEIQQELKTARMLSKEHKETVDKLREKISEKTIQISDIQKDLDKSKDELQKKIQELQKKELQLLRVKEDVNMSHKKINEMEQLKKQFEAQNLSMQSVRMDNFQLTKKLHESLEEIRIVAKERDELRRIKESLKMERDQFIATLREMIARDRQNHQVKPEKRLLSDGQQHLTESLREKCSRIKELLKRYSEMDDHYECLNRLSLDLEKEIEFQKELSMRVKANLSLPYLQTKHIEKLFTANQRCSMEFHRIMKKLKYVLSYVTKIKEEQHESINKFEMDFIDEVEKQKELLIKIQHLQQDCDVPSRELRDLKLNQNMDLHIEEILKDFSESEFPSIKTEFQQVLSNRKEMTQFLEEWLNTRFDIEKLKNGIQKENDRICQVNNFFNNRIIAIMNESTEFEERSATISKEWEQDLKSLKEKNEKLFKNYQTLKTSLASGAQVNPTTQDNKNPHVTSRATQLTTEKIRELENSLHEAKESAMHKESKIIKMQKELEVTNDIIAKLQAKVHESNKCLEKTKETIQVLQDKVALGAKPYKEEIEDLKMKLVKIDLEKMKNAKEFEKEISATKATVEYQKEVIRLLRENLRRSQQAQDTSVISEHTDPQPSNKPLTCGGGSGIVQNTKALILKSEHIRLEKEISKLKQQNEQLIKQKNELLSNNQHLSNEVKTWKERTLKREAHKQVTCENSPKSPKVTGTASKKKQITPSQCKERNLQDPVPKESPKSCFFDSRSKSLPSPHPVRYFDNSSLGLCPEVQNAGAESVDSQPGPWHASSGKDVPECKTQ

IC50 [1]: 5.8 µM
Imax [1]: 90%
inhibition [3]: 40%
inhibition [4]: 40%
IC50 [5]: 91.4 µM
solubility kinetic at 2 h [6]: 65 µM (≈ 30.6 µg/mL)
solubility kinetic at 2 h [7]: > 100 µM
Papp [8]: Impermeable
microsomal CLint at 3 µM [9]: 61.6 µL/min/mg
half-life at 3 µM [10]: 4.5 min
half-life at 3 µM [11]: 22.5 min
SMILES: CCCCCC(=O)Cc1cc(O)cc2c1C(=O)Oc1cc(O)c(C(=O)O)c(CCCCC)c1O2 [PHYSODIC ACID]
EC50 [2]: > 50 µM
